{"source": "paper PMC4702177", "about": "“Discovering new mTOR inhibitors for cancer treatment through virtual screening methods and in vitro assays” (Scientific Reports, 2016)", "key": {"[1]": {"test_system": "HeLa cells", "assay": "Quantification of apoptotic cells (Hoechst 33342 staining)", "assay_type": "cell-based, human", "conditions": "24 hours (control 1.9%)", "procedure": "To elucidate the mechanisms of cell death induced by 17, we analyzed the effect of 17 on nuclear morphology using Hoechst 33342 staining. […] This observation allowed for clear discrimination of treated cells from untreated non-apoptotic HeLa cells, which have a normal, round, and unpunctuated nucleus. […] The percentage of apoptotic HeLa cells were 6.5% and 7.7% at the concentrations of 2.74 and 5.48 μM, respectively (Fig. 6d). To further confirm the nuclear morphology observation, Western blotting was used to detect caspase-3 activation and PARP cleavage, two biochemical markers of apoptosis. […] The induction of apoptosis is positively correlated with the concentration of compound 17.\n[…] Then, the cells were collected, washed with PBS, and fixed in 4% paraformaldehyde for 15 min at room temperature. Finally, the samples were stained with Hoechst33342 (10 μg/mL) for 5 min. Stained nuclei were photographed under a fluorescence microscope with a 20× objective (Nikon)."}, "[2]": {"molecular_target": "AKT2 (PKB beta) (Homo sapiens, UniProt P31751)", "assay": "SelectScreen kinase profiling", "assay_type": "biochemical", "conditions": "mean ± SD of triplicate", "excerpt": "(§1) To characterize the kinase selectivity of compound 17, we profiled its ability to bind to a panel of 24 structurally related kinases using the SelectScreen Kinase Profiling Service (Life Technologies Corporation, Madison, WI)."}, "[3]": {"molecular_target": "FRAP1 (mTOR) (Homo sapiens, UniProt P42345)", "assay": "SelectScreen kinase profiling", "assay_type": "biochemical", "conditions": "mean ± SD of triplicate", "excerpt": "as §1"}, "[4]": {"molecular_target": "PIK3C2B (PI3K-C2 beta) (Homo sapiens, UniProt O00750)", "assay": "SelectScreen kinase profiling", "assay_type": "biochemical", "conditions": "mean ± SD of triplicate", "excerpt": "as §1"}, "[5]": {"molecular_target": "PIK3C2A (PI3K-C2 alpha) (Homo sapiens, UniProt O00443)", "sequence (O00443 whole entry)": "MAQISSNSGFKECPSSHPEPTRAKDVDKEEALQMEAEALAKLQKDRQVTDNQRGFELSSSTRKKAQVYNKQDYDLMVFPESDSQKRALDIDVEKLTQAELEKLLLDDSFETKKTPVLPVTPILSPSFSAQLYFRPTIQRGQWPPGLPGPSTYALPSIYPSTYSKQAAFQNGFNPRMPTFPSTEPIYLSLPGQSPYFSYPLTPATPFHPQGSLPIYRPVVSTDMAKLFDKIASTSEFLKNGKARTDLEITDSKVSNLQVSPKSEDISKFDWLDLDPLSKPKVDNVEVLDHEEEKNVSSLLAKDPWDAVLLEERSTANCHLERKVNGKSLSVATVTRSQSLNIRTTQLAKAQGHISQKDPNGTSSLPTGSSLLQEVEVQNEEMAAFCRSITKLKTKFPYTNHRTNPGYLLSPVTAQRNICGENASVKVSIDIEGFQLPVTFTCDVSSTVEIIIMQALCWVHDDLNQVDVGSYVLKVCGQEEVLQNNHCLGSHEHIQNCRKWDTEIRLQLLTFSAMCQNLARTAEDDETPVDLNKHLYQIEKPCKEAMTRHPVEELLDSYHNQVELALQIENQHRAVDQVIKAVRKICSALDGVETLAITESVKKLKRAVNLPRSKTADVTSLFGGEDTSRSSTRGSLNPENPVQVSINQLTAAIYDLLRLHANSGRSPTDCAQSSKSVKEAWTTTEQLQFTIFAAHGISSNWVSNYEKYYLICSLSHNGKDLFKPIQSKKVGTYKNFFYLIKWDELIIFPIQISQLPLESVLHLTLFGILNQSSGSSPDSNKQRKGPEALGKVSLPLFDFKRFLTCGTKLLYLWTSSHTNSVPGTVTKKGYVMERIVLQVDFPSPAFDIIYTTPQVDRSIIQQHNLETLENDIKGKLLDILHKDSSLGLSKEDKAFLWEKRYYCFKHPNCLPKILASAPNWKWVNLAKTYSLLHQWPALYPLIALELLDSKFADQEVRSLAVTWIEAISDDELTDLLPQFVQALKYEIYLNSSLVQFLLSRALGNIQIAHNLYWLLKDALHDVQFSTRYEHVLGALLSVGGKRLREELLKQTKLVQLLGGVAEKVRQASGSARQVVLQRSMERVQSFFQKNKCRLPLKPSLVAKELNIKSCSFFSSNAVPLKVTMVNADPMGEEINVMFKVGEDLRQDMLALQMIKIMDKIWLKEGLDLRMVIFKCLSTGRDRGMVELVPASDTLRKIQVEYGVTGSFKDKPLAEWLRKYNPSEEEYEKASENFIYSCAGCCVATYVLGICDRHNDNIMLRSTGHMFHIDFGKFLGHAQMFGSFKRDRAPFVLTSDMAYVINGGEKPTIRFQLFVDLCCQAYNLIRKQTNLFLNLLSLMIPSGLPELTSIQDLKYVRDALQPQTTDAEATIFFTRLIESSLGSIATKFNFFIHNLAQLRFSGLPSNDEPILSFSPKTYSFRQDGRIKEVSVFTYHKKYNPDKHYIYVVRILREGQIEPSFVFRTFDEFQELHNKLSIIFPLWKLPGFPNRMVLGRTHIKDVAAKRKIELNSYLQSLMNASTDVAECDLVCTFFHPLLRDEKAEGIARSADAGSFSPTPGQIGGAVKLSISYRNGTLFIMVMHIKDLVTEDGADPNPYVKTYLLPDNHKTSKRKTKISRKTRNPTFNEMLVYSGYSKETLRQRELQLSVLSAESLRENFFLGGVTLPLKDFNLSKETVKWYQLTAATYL", "assay": "SelectScreen kinase profiling", "assay_type": "biochemical", "conditions": "mean ± SD of triplicate", "excerpt": "as §1"}, "[6]": {"molecular_target": "CDK1/cyclin B (Homo sapiens, UniProt P06493)", "assay": "SelectScreen kinase profiling", "assay_type": "biochemical", "conditions": "mean ± SD of triplicate", "excerpt": "as §1"}, "[7]": {"molecular_target": "MARK1 (MARK) (Homo sapiens, UniProt Q9P0L2)", "assay": "SelectScreen kinase profiling", "assay_type": "biochemical", "conditions": "mean ± SD of triplicate", "excerpt": "as §1"}, "[8]": {"molecular_target": "PIK3CD/PIK3R1 (p110 delta/p85 alpha) (Homo sapiens, UniProt O00329)", "assay": "SelectScreen kinase profiling", "assay_type": "biochemical", "conditions": "mean ± SD of triplicate", "excerpt": "as §1"}, "[9]": {"molecular_target": "AKT1 (PKB alpha) (Homo sapiens, UniProt P31749)", "assay": "SelectScreen kinase profiling", "assay_type": "biochemical", "conditions": "mean ± SD of triplicate", "excerpt": "as §1"}, "[10]": {"molecular_target": "PI4KB (PI4K beta) (Homo sapiens, UniProt Q9UBF8)", "sequence (Q9UBF8 whole entry)": "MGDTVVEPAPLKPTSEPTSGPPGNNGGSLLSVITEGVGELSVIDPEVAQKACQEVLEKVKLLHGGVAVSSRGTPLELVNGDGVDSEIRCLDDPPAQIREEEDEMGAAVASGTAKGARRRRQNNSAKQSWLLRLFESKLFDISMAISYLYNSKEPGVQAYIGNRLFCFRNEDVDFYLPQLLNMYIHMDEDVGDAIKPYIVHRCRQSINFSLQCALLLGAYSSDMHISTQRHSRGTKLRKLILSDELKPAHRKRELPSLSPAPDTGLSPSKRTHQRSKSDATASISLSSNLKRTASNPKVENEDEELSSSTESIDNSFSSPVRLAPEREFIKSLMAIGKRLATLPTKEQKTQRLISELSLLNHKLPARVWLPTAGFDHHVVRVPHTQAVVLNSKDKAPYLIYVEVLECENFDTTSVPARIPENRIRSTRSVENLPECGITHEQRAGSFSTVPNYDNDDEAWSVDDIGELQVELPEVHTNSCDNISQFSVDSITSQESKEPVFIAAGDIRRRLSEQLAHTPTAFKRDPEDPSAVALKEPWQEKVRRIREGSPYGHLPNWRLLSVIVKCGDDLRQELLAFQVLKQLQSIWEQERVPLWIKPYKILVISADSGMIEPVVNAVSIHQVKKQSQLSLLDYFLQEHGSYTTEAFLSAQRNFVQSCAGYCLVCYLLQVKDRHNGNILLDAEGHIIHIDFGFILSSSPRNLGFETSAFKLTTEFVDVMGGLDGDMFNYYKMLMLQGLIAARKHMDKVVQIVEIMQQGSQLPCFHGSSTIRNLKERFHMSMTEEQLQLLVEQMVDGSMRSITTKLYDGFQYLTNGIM", "assay": "SelectScreen kinase profiling", "assay_type": "biochemical", "conditions": "mean ± SD of triplicate", "excerpt": "as §1"}, "[11]": {"molecular_target": "AMPK A2/B1/G1 (Homo sapiens, UniProt P54646)", "sequence (P54646 whole entry)": "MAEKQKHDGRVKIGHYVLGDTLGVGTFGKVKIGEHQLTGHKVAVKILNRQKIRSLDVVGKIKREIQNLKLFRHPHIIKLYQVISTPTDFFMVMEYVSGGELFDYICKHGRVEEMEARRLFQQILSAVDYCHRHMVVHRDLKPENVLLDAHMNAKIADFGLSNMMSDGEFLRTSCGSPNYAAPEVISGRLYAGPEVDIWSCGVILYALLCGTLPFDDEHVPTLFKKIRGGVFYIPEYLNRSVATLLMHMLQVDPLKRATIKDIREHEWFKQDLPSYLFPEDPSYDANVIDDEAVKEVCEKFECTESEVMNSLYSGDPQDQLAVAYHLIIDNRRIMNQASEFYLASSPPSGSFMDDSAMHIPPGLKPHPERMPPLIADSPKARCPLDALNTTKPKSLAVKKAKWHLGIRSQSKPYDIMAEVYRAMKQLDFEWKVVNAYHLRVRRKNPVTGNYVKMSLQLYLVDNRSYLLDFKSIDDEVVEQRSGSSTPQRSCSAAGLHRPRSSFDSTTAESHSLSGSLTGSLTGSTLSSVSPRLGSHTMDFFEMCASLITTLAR", "sequence (Q9Y478 whole entry partner)": "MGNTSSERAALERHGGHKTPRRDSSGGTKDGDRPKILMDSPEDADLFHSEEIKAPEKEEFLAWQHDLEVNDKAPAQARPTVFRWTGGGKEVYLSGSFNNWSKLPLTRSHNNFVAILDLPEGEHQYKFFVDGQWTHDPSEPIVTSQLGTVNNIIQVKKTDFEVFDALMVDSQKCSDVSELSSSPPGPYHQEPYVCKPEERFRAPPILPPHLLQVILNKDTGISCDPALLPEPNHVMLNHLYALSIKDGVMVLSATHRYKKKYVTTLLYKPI", "sequence (P54619 whole entry partner)": "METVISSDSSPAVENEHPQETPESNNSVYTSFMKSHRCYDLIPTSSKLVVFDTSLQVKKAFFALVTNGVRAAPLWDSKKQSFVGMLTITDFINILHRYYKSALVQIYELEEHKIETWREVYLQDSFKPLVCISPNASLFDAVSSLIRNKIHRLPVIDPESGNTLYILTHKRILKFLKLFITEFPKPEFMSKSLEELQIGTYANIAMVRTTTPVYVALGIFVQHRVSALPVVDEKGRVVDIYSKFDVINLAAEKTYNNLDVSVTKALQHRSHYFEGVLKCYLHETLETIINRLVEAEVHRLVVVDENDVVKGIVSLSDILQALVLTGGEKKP", "assay": "SelectScreen kinase profiling", "assay_type": "biochemical", "conditions": "mean ± SD of triplicate", "excerpt": "as §1"}, "[12]": {"molecular_target": "AMPK A1/B1/G1 (Homo sapiens, UniProt Q13131)", "assay": "SelectScreen kinase profiling", "assay_type": "biochemical", "conditions": "mean ± SD of triplicate", "excerpt": "as §1"}, "[13]": {"molecular_target": "PRKCD (PKC delta) (Homo sapiens, UniProt Q05655)", "sequence (Q05655 whole entry)": "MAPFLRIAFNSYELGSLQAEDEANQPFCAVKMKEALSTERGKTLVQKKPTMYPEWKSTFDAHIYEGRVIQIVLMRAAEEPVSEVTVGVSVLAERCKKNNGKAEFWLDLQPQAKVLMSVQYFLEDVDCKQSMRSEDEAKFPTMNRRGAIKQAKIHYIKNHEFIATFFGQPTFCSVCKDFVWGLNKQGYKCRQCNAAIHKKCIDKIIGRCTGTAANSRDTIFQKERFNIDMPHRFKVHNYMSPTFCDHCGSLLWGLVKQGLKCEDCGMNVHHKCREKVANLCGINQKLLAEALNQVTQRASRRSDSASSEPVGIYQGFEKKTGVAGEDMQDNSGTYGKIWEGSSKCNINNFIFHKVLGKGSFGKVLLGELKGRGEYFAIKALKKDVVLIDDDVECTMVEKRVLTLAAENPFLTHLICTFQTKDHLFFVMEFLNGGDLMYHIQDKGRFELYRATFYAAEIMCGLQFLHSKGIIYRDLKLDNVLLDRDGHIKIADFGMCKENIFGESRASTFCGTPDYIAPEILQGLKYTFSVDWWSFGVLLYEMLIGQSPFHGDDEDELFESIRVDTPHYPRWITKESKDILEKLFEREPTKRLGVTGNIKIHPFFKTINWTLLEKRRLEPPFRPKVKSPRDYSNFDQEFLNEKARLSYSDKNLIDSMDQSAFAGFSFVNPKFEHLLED", "assay": "SelectScreen kinase profiling", "assay_type": "biochemical", "conditions": "mean ± SD of triplicate", "excerpt": "as §1"}, "[14]": {"molecular_target": "PRKCB2 (PKC beta II) (Homo sapiens, UniProt P05771)", "assay": "SelectScreen kinase profiling", "assay_type": "biochemical", "conditions": "mean ± SD of triplicate", "excerpt": "as §1"}, "[15]": {"molecular_target": "PRKCB1 (PKC beta I) (Homo sapiens, UniProt P05771)", "sequence (P05771 whole entry)": "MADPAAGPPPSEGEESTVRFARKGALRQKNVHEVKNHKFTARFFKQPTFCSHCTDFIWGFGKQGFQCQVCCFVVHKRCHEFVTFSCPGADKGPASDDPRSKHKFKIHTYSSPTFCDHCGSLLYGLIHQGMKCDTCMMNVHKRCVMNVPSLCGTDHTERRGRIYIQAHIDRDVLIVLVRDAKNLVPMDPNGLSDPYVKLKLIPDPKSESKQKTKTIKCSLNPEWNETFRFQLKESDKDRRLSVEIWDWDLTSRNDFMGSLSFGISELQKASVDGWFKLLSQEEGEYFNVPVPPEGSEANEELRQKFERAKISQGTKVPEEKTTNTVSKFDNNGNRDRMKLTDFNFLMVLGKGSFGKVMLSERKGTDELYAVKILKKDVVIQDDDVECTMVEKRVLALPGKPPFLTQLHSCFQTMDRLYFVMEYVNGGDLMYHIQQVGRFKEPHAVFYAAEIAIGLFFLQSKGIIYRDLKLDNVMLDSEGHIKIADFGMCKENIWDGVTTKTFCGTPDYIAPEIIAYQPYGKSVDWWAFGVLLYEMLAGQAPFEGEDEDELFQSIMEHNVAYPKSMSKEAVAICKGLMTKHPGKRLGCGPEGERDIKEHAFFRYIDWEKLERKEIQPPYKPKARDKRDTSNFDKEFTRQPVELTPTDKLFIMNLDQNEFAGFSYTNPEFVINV", "assay": "SelectScreen kinase profiling", "assay_type": "biochemical", "conditions": "mean ± SD of triplicate", "excerpt": "as §1"}, "[16]": {"molecular_target": "CDK2/cyclin A (Homo sapiens, UniProt P24941)", "assay": "SelectScreen kinase profiling", "assay_type": "biochemical", "conditions": "mean ± SD of triplicate", "excerpt": "as §1"}, "[17]": {"molecular_target": "AKT3 (PKB gamma) (Homo sapiens, UniProt Q9Y243)", "assay": "SelectScreen kinase profiling", "assay_type": "biochemical", "conditions": "mean ± SD of triplicate", "excerpt": "as §1"}, "[18]": {"molecular_target": "IKBKB (IKK beta) (Homo sapiens, UniProt O14920)", "assay": "SelectScreen kinase profiling", "assay_type": "biochemical", "conditions": "mean ± SD of triplicate", "excerpt": "as §1"}, "[19]": {"test_system": "HeLa cells", "assay": "Cell cycle analysis by flow cytometry", "assay_type": "cell-based, human", "conditions": "2.74 and 5.48 μM, 24 hours", "procedure": "To further explore the mechanism of cell growth inhibition by compound 17, we examined the effects of compound 17 on cell cycle distribution in HeLa cells using flow cytometry.\nCells cycle distribution was analyzed as previously described. In brief, HeLa cells (1.5 × 10^4/well) seeded in six-well plates were incubated with compound 17 for 24 h. Then, the cells were collected, washed twice with phosphate-buffered saline (PBS), and fixed in 70% cold ethanol at −20 °C overnight. Finally, the samples were stained with 50 μg/mL propidium iodide and 30 μg/mL of RNase A at 37 °C for 1 h. DNA content data were acquired using CELLQuest software on a flow cytometer (FACSCalibur; Becton Dickinson, Mountain View, CA, USA)."}, "[20]": {"test_system": "HeLa (human cervical cancer cell)", "assay": "In vitro cell proliferation assay", "assay_type": "cell-based", "conditions": "Homo sapiens, 48 h, highest concentration 100 μM, read-out: IC50 (anti-proliferative)", "procedure": "(§2) Most human breast cancer cells and cervical cancer cells become resistant to current chemotherapeutic drugs due to mutation of apoptotic mechanisms. It has been reported that MCF-7 cells are resistant to most of the drugs approved by the US Food and Drug Administration (FDA), including paclitaxel, doxorubicin, 5-fluorouracil, etoposide, and camptothecin[31][32].\n(§3) Cell proliferation was measured with an MTS assay (CellTiter 96 Aqueous ONE Solution kit; Promega, Madison, USA). MCF-7, HeLa, MGC-803, C6 and U87 cells in log-phase were seeded (5 × 10^3 cells/well) in 96-well plates for 24 h, and then the medium were replaced with fresh medium containing different concentrations of compounds. […] After incubation for 48 h, the cells were further incubated with 20 μL of MTS for 1–4 h at 37 °C in a humidified incubator with 5% CO2. The absorbance at 490 nm was measured using a mircoplate reader (Model680, Bio-Rad; Hercules, CA, USA). The inhibition rate (%) was calculated as equation (1): […]\n(§4) IC50 values were determined from the results of at least three independent tests and calculated from the inhibition curves."}, "[21]": {"test_system": "C6 (Glioma cell)", "assay": "In vitro cell proliferation assay", "assay_type": "cell-based", "conditions": "C6 glioma, 48 h, highest concentration 100 μM, read-out: IC50 (anti-proliferative)", "procedure": "as §2, §3, §4"}, "[22]": {"test_system": "MCF-7 (human breast cancer cell)", "assay": "In vitro cell proliferation assay", "assay_type": "cell-based", "conditions": "Homo sapiens, MCF7, 48 h, 48 h, highest concentration 100 μM, read-out: IC50 (anti-proliferative)", "procedure": "as §2, §3, §4"}, "[23]": {"test_system": "MGC-803 (human gastric cancer)", "assay": "In vitro cell proliferation assay", "assay_type": "cell-based", "conditions": "Homo sapiens, MGC-803, 48 h, 48 h, highest concentration 100 μM, read-out: IC50 (anti-proliferative)", "procedure": "as §2, §3, §4"}}, "note": "“Also recorded” adds a separate entry of the source.", "data": [{"smiles": "Nc1nn2c(nc(N)c3c(N)n[nH]c32)c1/N=N/c1ccccc1", "note": "[Compound 17]", "values": [{"measurement": "% of apoptotic cells", "setting": "[1]; 2.74 μM", "result": 6.5, "unit": "%"}, {"measurement": "% of apoptotic cells", "setting": "[1]; 5.48 μM", "result": 7.7, "unit": "%"}, {"measurement": "inhibition at 10 µM", "setting": "[2]", "result": "33.6 ± 3.23", "unit": "%"}, {"measurement": "inhibition at 10 µM", "setting": "[3]", "result": "16.9 ± 4.99", "unit": "%"}, {"measurement": "inhibition at 10 µM", "setting": "[4]", "result": "39.3 ± 7.29", "unit": "%"}, {"measurement": "inhibition at 10 µM", "setting": "[5]", "result": "28.6 ± 1.96", "unit": "%"}, {"measurement": "inhibition at 10 µM", "setting": "[6]", "result": "3.09 ± 2.31", "unit": "%"}, {"measurement": "inhibition at 10 µM", "setting": "[7]", "result": "-12.2 ± 4.24", "unit": "%"}, {"measurement": "inhibition at 10 µM", "setting": "[8]", "result": "41.4 ± 0.63", "unit": "%"}, {"measurement": "inhibition at 10 µM", "setting": "[9]", "result": "22.7 ± 9.34", "unit": "%"}, {"measurement": "inhibition at 10 µM", "setting": "[10]", "result": "31.8 ± 1.18", "unit": "%"}, {"measurement": "inhibition at 10 µM", "setting": "[11]", "result": "33.8 ± 4.29", "unit": "%"}, {"measurement": "inhibition at 10 µM", "setting": "[12]", "result": "17 ± 3.47", "unit": "%"}, {"measurement": "inhibition at 10 µM", "setting": "[13]", "result": "-10.5 ± 9.55", "unit": "%"}, {"measurement": "inhibition at 10 µM", "setting": "[14]", "result": "17.7 ± 4.98", "unit": "%"}, {"measurement": "inhibition at 10 µM", "setting": "[15]", "result": "9.54 ± 0.09", "unit": "%"}, {"measurement": "inhibition at 10 µM", "setting": "[16]", "result": "-1.54 ± 1.35", "unit": "%"}, {"measurement": "inhibition at 10 µM", "setting": "[17]", "result": "11.7 ± 0.37", "unit": "%"}, {"measurement": "inhibition at 10 µM", "setting": "[18]", "result": "11.7 ± 1.62", "unit": "%"}, {"measurement": "cell cycle distribution", "setting": "[19]", "result": "arrests the cell cycle of HeLa at the G1/G0-phase; also recorded: induced an arrest of cell cycle at the G1/G0-phase"}, {"measurement": "IC50", "setting": "[20]", "result": 2.74, "unit": "µM"}, {"measurement": "IC50", "setting": "[21]", "result": 11.1, "unit": "µM"}, {"measurement": "IC50", "setting": "[22]", "result": 1.9, "unit": "µM"}, {"measurement": "IC50", "setting": "[23]", "result": 3.5, "unit": "µM"}]}]}
